Results: the NIST ThermoML archive (doi:10.1021/acs.jced.7b00106)
± gives the expanded uncertainty stated by the source.

Conditions: Hot wire method

FC(F)(F)/C=C/Cl [(E)-1-chloro-3,3,3-trifluoroprop-1-ene]
thermal conductivity (383.11 K, 7892 kPa, Liquid): 0.06492 ± 0.00093 W/m/K
thermal conductivity (383.11 K, 8377 kPa, Liquid): 0.06527 ± 0.0038 W/m/K
thermal conductivity (383.11 K, 20088 kPa, Liquid): 0.07252 ± 0.001 W/m/K
thermal conductivity (383.12 K, 7882 kPa, Liquid): 0.06487 ± 0.0037 W/m/K
thermal conductivity (383.12 K, 8374 kPa, Liquid): 0.06525 ± 0.00075 W/m/K
thermal conductivity (383.12 K, 20102 kPa, Liquid): 0.07254 ± 0.0011 W/m/K
thermal conductivity (383.13 K, 1307 kPa, Liquid): 0.05937 ± 0.00087 W/m/K
thermal conductivity (383.13 K, 1311 kPa, Liquid): 0.05937 ± 0.00068 W/m/K
thermal conductivity (383.13 K, 35551 kPa, Liquid): 0.08007 ± 0.0014 W/m/K
thermal conductivity (383.13 K, 35559 kPa, Liquid): 0.08009 ± 0.0014 W/m/K
thermal conductivity (383.17 K, 33010 kPa, Liquid): 0.07893 ± 0.0013 W/m/K
thermal conductivity (383.17 K, 33031 kPa, Liquid): 0.07897 ± 0.0015 W/m/K
thermal conductivity (383.19 K, 6275 kPa, Liquid): 0.06357 ± 0.0009 W/m/K
thermal conductivity (383.2 K, 884 kPa, Fluid (supercritical or subcritical phases)): 0.018 ± 0.0025 W/m/K
thermal conductivity (383.2 K, 6276 kPa, Liquid): 0.06372 ± 0.00092 W/m/K
thermal conductivity (383.2 K, 16814 kPa, Liquid): 0.07066 ± 0.0013 W/m/K
thermal conductivity (383.2 K, 16828 kPa, Liquid): 0.07087 ± 0.00096 W/m/K
thermal conductivity (383.21 K, 885 kPa, Fluid (supercritical or subcritical phases)): 0.01804 ± 0.0032 W/m/K
thermal conductivity (383.21 K, 1198 kPa, Fluid (supercritical or subcritical phases)): 0.01888 ± 0.0043 W/m/K
thermal conductivity (383.23 K, 1197 kPa, Fluid (supercritical or subcritical phases)): 0.01891 ± 0.0043 W/m/K
thermal conductivity (383.23 K, 28320 kPa, Liquid): 0.07674 ± 0.0022 W/m/K
thermal conductivity (383.24 K, 28314 kPa, Liquid): 0.07674 ± 0.0022 W/m/K
thermal conductivity (383.25 K, 13728 kPa, Liquid): 0.06881 ± 0.0016 W/m/K
thermal conductivity (383.26 K, 13716 kPa, Liquid): 0.0688 ± 0.00089 W/m/K
thermal conductivity (383.3 K, 4299 kPa, Liquid): 0.0621 ± 0.0007 W/m/K
thermal conductivity (383.3 K, 4304 kPa, Liquid): 0.06207 ± 0.0007 W/m/K
thermal conductivity (383.31 K, 24121 kPa, Liquid): 0.07463 ± 0.0012 W/m/K
thermal conductivity (383.31 K, 24128 kPa, Liquid): 0.07464 ± 0.0012 W/m/K
thermal conductivity (383.34 K, 10966 kPa, Liquid): 0.06703 ± 0.00092 W/m/K
thermal conductivity (383.35 K, 10969 kPa, Liquid): 0.06723 ± 0.0009 W/m/K
thermal conductivity (383.36 K, 2610 kPa, Liquid): 0.06058 ± 0.001 W/m/K
thermal conductivity (383.36 K, 2618 kPa, Liquid): 0.06063 ± 0.0007 W/m/K
thermal conductivity (383.4 K, 20075 kPa, Liquid): 0.07247 ± 0.0021 W/m/K
thermal conductivity (383.4 K, 35533 kPa, Liquid): 0.07987 ± 0.0056 W/m/K
thermal conductivity (383.4 K, 35549 kPa, Liquid): 0.08004 ± 0.0012 W/m/K
thermal conductivity (383.41 K, 7887 kPa, Liquid): 0.06484 ± 0.00081 W/m/K
thermal conductivity (383.41 K, 8373 kPa, Liquid): 0.06523 ± 0.00089 W/m/K
thermal conductivity (383.41 K, 20088 kPa, Liquid): 0.07251 ± 0.0021 W/m/K
thermal conductivity (383.42 K, 999 kPa, Fluid (supercritical or subcritical phases)): 0.01831 ± 0.0029 W/m/K
thermal conductivity (383.42 K, 7894 kPa, Liquid): 0.06491 ± 0.0011 W/m/K
thermal conductivity (383.42 K, 8391 kPa, Liquid): 0.06529 ± 0.0015 W/m/K
thermal conductivity (383.43 K, 1000 kPa, Fluid (supercritical or subcritical phases)): 0.01834 ± 0.0029 W/m/K
thermal conductivity (383.44 K, 1304 kPa, Liquid): 0.05936 ± 0.00069 W/m/K
thermal conductivity (383.44 K, 1312 kPa, Liquid): 0.05942 ± 0.0014 W/m/K
thermal conductivity (383.44 K, 33007 kPa, Liquid): 0.07889 ± 0.0035 W/m/K
thermal conductivity (383.45 K, 33003 kPa, Liquid): 0.0789 ± 0.0032 W/m/K
thermal conductivity (383.49 K, 16818 kPa, Liquid): 0.07063 ± 0.0017 W/m/K
thermal conductivity (383.49 K, 16831 kPa, Liquid): 0.07066 ± 0.0069 W/m/K
thermal conductivity (383.5 K, 6277 kPa, Liquid): 0.06367 ± 0.0025 W/m/K
thermal conductivity (383.51 K, 6277 kPa, Liquid): 0.06368 ± 0.0023 W/m/K
thermal conductivity (383.51 K, 28297 kPa, Liquid): 0.07667 ± 0.0027 W/m/K
thermal conductivity (383.52 K, 28321 kPa, Liquid): 0.07671 ± 0.0023 W/m/K
thermal conductivity (383.54 K, 1198 kPa, Fluid (supercritical or subcritical phases)): 0.01908 ± 0.0041 W/m/K
thermal conductivity (383.55 K, 1198 kPa, Fluid (supercritical or subcritical phases)): 0.01907 ± 0.0038 W/m/K
thermal conductivity (383.55 K, 13721 kPa, Liquid): 0.06876 ± 0.002 W/m/K
thermal conductivity (383.56 K, 13735 kPa, Liquid): 0.06881 ± 0.0017 W/m/K
thermal conductivity (383.6 K, 24101 kPa, Liquid): 0.07457 ± 0.0016 W/m/K
thermal conductivity (383.6 K, 24124 kPa, Liquid): 0.0746 ± 0.0012 W/m/K
thermal conductivity (383.61 K, 4288 kPa, Liquid): 0.06216 ± 0.0007 W/m/K
thermal conductivity (383.62 K, 4293 kPa, Liquid): 0.06209 ± 0.001 W/m/K
thermal conductivity (383.65 K, 10955 kPa, Liquid): 0.067 ± 0.00086 W/m/K
thermal conductivity (383.65 K, 10973 kPa, Liquid): 0.06702 ± 0.0056 W/m/K
thermal conductivity (383.68 K, 2612 kPa, Liquid): 0.0606 ± 0.0008 W/m/K
thermal conductivity (383.68 K, 2620 kPa, Liquid): 0.06068 ± 0.0014 W/m/K
thermal conductivity (383.73 K, 8375 kPa, Liquid): 0.06521 ± 0.00091 W/m/K
thermal conductivity (383.73 K, 8381 kPa, Liquid): 0.06538 ± 0.0035 W/m/K
thermal conductivity (383.78 K, 999 kPa, Fluid (supercritical or subcritical phases)): 0.01848 ± 0.0032 W/m/K
thermal conductivity (401.38 K, 1794 kPa, Fluid (supercritical or subcritical phases)): 0.02085 ± 0.0036 W/m/K
thermal conductivity (401.39 K, 1794 kPa, Fluid (supercritical or subcritical phases)): 0.02077 ± 0.0053 W/m/K
thermal conductivity (401.48 K, 1714 kPa, Fluid (supercritical or subcritical phases)): 0.0205 ± 0.0048 W/m/K
thermal conductivity (401.48 K, 1716 kPa, Fluid (supercritical or subcritical phases)): 0.02045 ± 0.0066 W/m/K
thermal conductivity (401.53 K, 1623 kPa, Fluid (supercritical or subcritical phases)): 0.02023 ± 0.0029 W/m/K
